Data on 44 molecules can be found in US20110092476A1, “Bicycloheteroaryl compounds as P2X7 modulators and uses thereof” (Renovis, Inc., priority 2006, published 2011).

≈ marks a conversion by molar mass, not a printed value. Where two headings read alike, the source gives them in different places. Bounds are passed on as bounds.

One series concerns the target T1, P2X7 receptor (Homo sapiens, UniProt Q99572).
T1 construct: host or cells: THP-1 cells differentiated with LPS and IFN-γ
T1 sequence (Q99572 1-595): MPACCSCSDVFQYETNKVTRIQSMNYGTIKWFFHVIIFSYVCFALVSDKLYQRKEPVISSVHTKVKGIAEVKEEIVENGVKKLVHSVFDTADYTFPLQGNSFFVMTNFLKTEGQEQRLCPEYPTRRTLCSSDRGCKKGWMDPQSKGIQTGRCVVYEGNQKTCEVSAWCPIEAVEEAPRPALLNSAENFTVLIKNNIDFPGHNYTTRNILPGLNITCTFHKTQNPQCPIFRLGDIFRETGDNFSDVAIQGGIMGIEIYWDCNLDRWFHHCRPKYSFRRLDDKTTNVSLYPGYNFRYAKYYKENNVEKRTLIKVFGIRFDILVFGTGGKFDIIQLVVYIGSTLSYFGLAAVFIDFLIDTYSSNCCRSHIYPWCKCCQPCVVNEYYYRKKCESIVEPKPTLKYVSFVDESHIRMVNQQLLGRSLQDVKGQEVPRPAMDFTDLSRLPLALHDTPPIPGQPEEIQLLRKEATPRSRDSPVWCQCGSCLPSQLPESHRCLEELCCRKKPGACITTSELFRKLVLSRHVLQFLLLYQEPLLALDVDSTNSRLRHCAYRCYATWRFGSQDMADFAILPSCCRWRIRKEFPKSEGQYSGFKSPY
Nature of the series: IL-1β release assay in differentiated THP-1 cells stimulated with BzATP (Example 9). The class given is cell-based. The conditions noted are these: BzATP 250 uM; for inhibition at 0.3 µM / inhibition at 0.1 µM: differentiated THP-1 cells, read-out: IL-1β % Inhib. @ 0.3 or 0.1 uM; for IC50: THP-1 cells, IL-1β by ELISA. In a few lines:
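THP-1 cells differentiated 16 h with 100 ng/mL LPS and 100 ng/mL IFN-γ, primed 2 h with fresh LPS, pretreated 30 min with compound, then stimulated 45 min with 250 uM BzATP (final). Supernatant IL-1β measured by ELISA; background-adjusted percent inhibition fitted to a four-parameter logistic for IC50.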
(In general: In an ELISA, binding on a coated surface is turned into a signal by an enzyme label.)

Series [1] is described as follows: Determination of aqueous (kinetic) solubility. Type of series: physicochemical. The note with it: aqueous buffer, kinetic from dmso stock, buffer pH 7.4. Here is the method:
The mixture was vortexed for 1 hour and equilibrated overnight at room temperature. The mixture was filtered through a saturated filter and the filtrate was analyzed by LC/MS/MS.
For the purpose of Table 5, solubility of each compound is expressed as follows: […]

Broadly, the solubility is how much of the substance goes into solution per volume. Regarding `C[C@H](C(N)=O)n1ccc2c(NC(=O)Cc3ccc(C(F)(F)F)c(F)c3)cccc2c1=O` [Compound 306], the inhibition at 0.3 µM at P2X7 receptor (0.3 μM compound, "+" symbols) is > 76%. Also, the solubility in series [1] was < 25 µM.
The corresponding values for `CC(C)[C@H](C(N)=O)n1ccc2c(NC(=O)[C@@H](C)c3ccc(Cl)cc3)cccc2c1=O` [Compound 283] are > 76% and > 75 µM.
In the same order, the values of `CC(C)[C@H](C(N)=O)n1ccc2c(NC(=O)[C@H](C)c3ccc(Cl)cc3)cccc2c1=O` [Compound 284, (R)-2-{5-[(R)-2-(4-Chloro-phenyl)-propionylamino]-1-oxo-1H-isoquinolin-2-yl}-3-methyl-butyramide] are > 76% and > 75 µM.
The corresponding values for `C[C@@H](C(=O)Nc1cccc2c(=O)n([C@@H](C)C(N)=O)ccc12)c1ccc(Cl)cc1` [Compound 266] are > 76% and > 75 µM.
On to `O=C(Cc1ccc(Cl)cc1Cl)Nc1cccc2c(=O)n(CCO)ccc12` [Compound 69], for which the inhibition at 0.3 µM on P2X7 receptor (0.3 μM compound (symbols +)) is > 76%. Further, the solubility in series [1] was < 25 µM.
The corresponding values for `O=C(Cc1ccc(Cl)c(Cl)c1)Nc1cccc2c(=O)n(C(CO)CO)ccc12` [Compound 80] are > 76% and > 75 µM.
On to `C[C@H](C(N)=O)n1ccc2c(NC(=O)Cc3ccc(F)c(Br)c3)cccc2c1=O` [Compound 307], for which the inhibition at 0.3 µM on P2X7 receptor (0.3 μM compound, "+" symbols) is > 76%. Also, in series [1], the solubility was < 25 µM.
As usually defined, the IC50 is the concentration that gives 50% inhibition. Low readings indicate inhibition by little substance, high ones a need for much substance. Consider `Cc1ccc2c(=O)n([C@H](C)CO)ccc2c1NC(=O)Cc1ccc(Cl)c(F)c1` [Compound 398], for which inhibition at P2X7 receptor was half-maximal at 5.38 nM (IC50). In addition, the inhibition at 0.3 µM on P2X7 receptor ("+" symbols = compound at 0.3 μM) was > 76%. For the same molecule, the solubility in series [1] is > 75 µM.
`C[C@H](CO)n1ccc2c(NC(=O)Cc3ccc(Cl)c(Cl)c3)cccc2c1=O` [Compound 333, 2-(3,4-Dichloro-phenyl)-N-[2-((R)-2-hydroxy-1-methyl-ethyl)-1-oxo-1,2-dihydro-isoquinolin-5-yl]-acetamide]: on P2X7 receptor (0.3 μM compound, "+" symbols), the inhibition at 0.3 µM is > 76%. The solubility in series [1] was > 75 µM.
On to `NC(=O)Cn1ccc2c(NC(=O)Cc3ccc(Cl)c(C(F)(F)F)c3)cccc2c1=O` [Compound 249, 2-{5-[2-(4-Chloro-3-trifluoromethyl-phenyl)-acetylamino]-1-oxo-1H-isoquinolin-2-yl}-acetamide], for which the inhibition at 0.3 µM at P2X7 receptor (0.3 μM compound, "+" symbols) was > 76%. Besides, the solubility in series [1] is < 25 µM.
In the same order, the values of `C[C@H](C(N)=O)n1ccc2c(NC(=O)[C@H](C)c3ccc(Cl)cc3)cccc2c1=O` [Compound 262] are > 76% and > 75 µM.
As to `C[C@H](C(N)=O)n1ccc2c(NC(=O)Cc3ccc(F)c(Cl)c3)cccc2c1=O` [Compound 301], at P2X7 receptor (0.3 μM compound, "+" symbols), the inhibition at 0.3 µM is > 76%. In series [1], this molecule came in with a solubility of 26 to 50 µM (≈ 10.4 to 20.1 µg/mL).
In the same order, the values of `C[C@H](CO)n1ccc2c(NC(=O)[C@H](C)c3ccc(Cl)c(Cl)c3)cccc2c1=O` [Compound 320] are > 76% and 51 to 75 µM (≈ 21.4 to 31.4 µg/mL).
In the same order, the values of `C[C@H](C(N)=O)n1ccc2c(NC(=O)Cc3ccc(F)c(C(F)(F)F)c3)cccc2c1=O` [Compound 304] are > 76% and < 25 µM.
As to `Cc1ccc2c(=O)n([C@H](C)CO)ccc2c1NC(=O)Cc1ccc(C(F)(F)F)cc1` [Compound 397], on P2X7 receptor (0.3 μM compound, "+" symbols), the inhibition at 0.3 µM was > 76%. Further, at P2X7 receptor, the IC50 worked out at 65.1 nM. Besides, the solubility in series [1] was in the range of 51 to 75 µM (≈ 21.3 to 31.4 µg/mL).
In the same order, the values of `Cc1ccc2c(=O)n([C@H](C)CO)ccc2c1NC(=O)Cc1cccc(C(F)(F)F)c1F` [Compound 395] are > 76%, 9.44 nM and > 75 µM.
For `C[C@H](C(N)=O)n1ccc2c(NC(=O)Cc3ccc(Cl)c(F)c3)cccc2c1=O` [Compound 300], the inhibition at 0.3 µM on P2X7 receptor (0.3 μM compound, "+" symbols) is > 76%. In series [1], the solubility was < 25 µM.
`COc1ccc(C(=O)Nc2cccc3c(=O)n(C(CO)CO)ccc23)c(OC)c1` [Compound 5]: on P2X7 receptor (0.3 μM compound (symbols +)), the inhibition at 0.3 µM was 0 to 25%.
Turning to `Cc1ccc(C(=O)Nc2cccc3c(=O)n(C(C)CO)ccc23)c(C)c1` (stereo not shown) [Compound 99], the inhibition at 0.1 µM at P2X7 receptor (0.1 μM compound (symbols *)) is 0 to 25%.
As for `CS(=O)(=O)c1ccc(CC(=O)Nc2cccc3c(=O)n(CCO)ccc23)cc1` [Compound 72], the inhibition at 0.3 µM on P2X7 receptor (0.3 μM compound (symbols +)) was 0 to 25%.
As for `COc1cc(CC(=O)Nc2cccc3c(=O)n(CC(C)(C)O)ccc23)cc(OC)c1` [Compound 219], on P2X7 receptor (0.1 μM compound, "*" symbols), the inhibition at 0.1 µM was in the range of 0 to 25%.
For `C[C@H](C(N)=O)n1ccc2c(NC(=O)Cc3ccc(C#N)cc3)cccc2c1=O` [Compound 287], at P2X7 receptor (0.3 μM compound, "+" symbols), the inhibition at 0.3 µM is 26 to 50%.
The same measure, in the same setting: with `C[C@H](C(=O)Nc1cccc2c(=O)n([C@H](C)C(=O)NC3CC3)ccc12)c1ccc(Cl)cc1` [Compound 308, (R)-2-{5-[(S)-2-(4-Chloro-phenyl)-propionylamino]-1-oxo-1H-isoquinolin-2-yl}-N-cyclopropyl-propionamide] the figure was 51 to 75%; with `C[C@@H](C(N)=O)n1ccc2c(NC(=O)Cc3ccc(Cl)cc3F)cccc2c1=O` [Compound 350], > 76%.
The same measure, in the same setting: the value for `C[C@H](C(N)=O)n1ccc2c(NC(=O)Cc3ccc(Cl)c(Cl)c3)cccc2c1=O` [Compound 239] was > 76%.
For `CC(O)Cn1ccc2c(NC(=O)Cc3ccccc3F)cccc2c1=O` (stereo not shown) [Compound 153], the inhibition at 0.1 µM at P2X7 receptor (0.1 μM compound (symbols *)) fell in the range of 0 to 25%.
As for `CC(C)(O)Cn1ccc2c(NC(=O)c3cc(Cl)ccc3Cl)cccc2c1=O` [Compound 199], the inhibition at 0.1 µM on P2X7 receptor (0.1 μM compound, "*" symbols) was 0 to 25%.
Consider `COc1ccc(C(=O)Nc2cccc3c(=O)n(CC(C)(C)O)ccc23)c(C)c1` [Compound 186], for which, at P2X7 receptor (0.1 μM compound (symbols *)), the inhibition at 0.1 µM was in the range of 0 to 25%.
For the molecule `Cc1ccc(C)c(C(=O)Nc2cccc3c(=O)n(CC(C)(C)O)ccc23)c1` [Compound 202], the inhibition at 0.1 µM at P2X7 receptor (0.1 μM compound, "*" symbols) lay within 0 to 25%.
For the molecule `CC(C)C[C@H](CO)n1ccc2c(NC(=O)Cc3ccc(Cl)c(Cl)c3)cccc2c1=O` [Compound 275], the inhibition at 0.3 µM on P2X7 receptor (0.3 μM compound, "+" symbols) was > 76%.
Consider `O=C(Cc1cc(C(F)(F)F)cc(C(F)(F)F)c1)Nc1cccc2c(=O)n(CCO)ccc12` [Compound 64], for which, at P2X7 receptor (0.3 μM compound (symbols +)), the inhibition at 0.3 µM was in the range of 51 to 75%.
`C[C@H](C(=O)Nc1cccc2c(=O)n(C(C(N)=O)c3ccc(Cl)cc3)ccc12)c1ccc(Cl)cc1` (stereo partly drawn) [Compound 315, (S)—N-{2-[Carbamoyl-(4-chloro-phenyl)-methyl]-1-oxo-1,2-dihydro-isoquinolin-5-yl}-2-(4-chloro-phenyl)-propionamide]: at P2X7 receptor (0.3 μM compound, "+" symbols), the inhibition at 0.3 µM lay within 51 to 75%.
Regarding `Cc1ccc(Cl)cc1C(=O)Nc1cccc2c(=O)n(C(C)CO)ccc12` (stereo not shown) [Compound 122], the inhibition at 0.1 µM on P2X7 receptor (0.1 μM compound (symbols *)) lay in the range of 0 to 25%.
Take `COc1cccc(CC(=O)Nc2cccc3c(=O)n(CC(C)(C)O)ccc23)c1` [Compound 212]: the inhibition at 0.1 µM on P2X7 receptor (0.1 μM compound, "*" symbols) lay in the range of 26 to 50%.
Take `Cc1ccccc1CCC(=O)Nc1cccc2c(=O)n(CC3(O)CCCCC3)ccc12` [Compound 84]: at P2X7 receptor (0.1 μM compound (symbols *)), the inhibition at 0.1 µM lay within 0 to 25%.
Consider `C[C@H](C(N)=O)n1ccc2c(NC(=O)Cc3ccc(C(F)(F)F)cc3C(F)(F)F)cccc2c1=O` [Compound 380], for which, on P2X7 receptor (0.3 μM compound, "+" symbols), the inhibition at 0.3 µM is > 76%.
For the molecule `CC(CO)n1ccc2c(NC(=O)c3ccc(Cl)cc3Cl)cccc2c1=O` (stereo not shown) [Compound 96], at P2X7 receptor (0.1 μM compound (symbols *)), the inhibition at 0.1 µM lay within 0 to 25%.
For the molecule `Cc1ccc(Cl)cc1C(=O)Nc1cccc2c(=O)n(CC3(O)CCCCC3)ccc12` [Compound 52], on P2X7 receptor (0.3 μM compound (symbols +)), the inhibition at 0.3 µM lay in the range of 0 to 25%.
Regarding `Cc1cc(Cl)ccc1C(=O)Nc1cccc2c(=O)n(CC(C)O)ccc12` (stereo not shown) [Compound 169], the inhibition at 0.1 µM at P2X7 receptor (0.1 μM compound (symbols *)) was 0 to 25%.
`Cc1ccc(CC(=O)Nc2cccc3c(=O)n(CC4(O)CCCCC4)ccc23)cc1` [Compound 35]: at P2X7 receptor (0.3 μM compound (symbols +)), the inhibition at 0.3 µM fell in the range of 26 to 50%.
In the case of `C[C@H](C(N)=O)n1ccc2c(NC(=O)Cc3ccc(F)cc3C(F)(F)F)cccc2c1=O` [Compound 295], the inhibition at 0.3 µM on P2X7 receptor (0.3 μM compound, "+" symbols) fell in the range of 51 to 75%.
Same read-out and setting: the value for `C[C@H](C(=O)Nc1cccc2c(=O)n([C@@H](C(N)=O)c3ccccc3)ccc12)c1ccc(Cl)cc1` [Compound 279, (S)—N-[2-((R)-Carbamoyl-phenyl-methyl)-1-oxo-1,2-dihydro-isoquinolin-5-yl]-2-(4-chloro-phenyl)-propionamide] was > 76%; that for `C[C@H](C(N)=O)n1ccc2c(NC(=O)Cc3cc(F)c(F)c(F)c3)cccc2c1=O` [Compound 381] was > 76%; that for `C[C@@H](CO)n1ccc2c(NC(=O)Cc3ccc(C(F)(F)F)c(F)c3)cccc2c1=O` [Compound 336] was > 76%.
